Assay results published in patent US20260069584A1, “METHODS OF TREATING CHRONIC MYELOID LEUKEMIA USING THE TYROSINE KINASE INHIBITOR VODOBATINIB” (Sun Pharma Advanced Research Company Ltd., priority 2022, published 2026).

Tested on: AP CML, BP CML and Ph+ ALL
Experiment: Part B: disease response in AP CML, BP CML and Ph+ ALL subjects
Format: in vivo, human
Description: This was a Phase I/2, open-label, single-agent, multicenter, multi-dose, dose-escalation study in subjects with Philadelphia chromosome-positive Ph+ CML (CP CML, AP CML and BP CML) and Ph+ ALL. The primary objectives of this study were to determine the maximum tolerated dose (MTD; or recommended Phase 2 dose [RP2D]) of the compound of Formula I when administered orally and to evaluate its safety.
In this study, the dose-escalation cohort started with an accelerated titration study design (ATD) and shifted to a 3±3 design when subjects in the preceding ATD cohort experienced either grade 2 or higher adverse events (AEs) or dose-limiting toxicity (DLT) during Cycle 1 that was not clearly and incontrovertibly related to the underlying disease or concomitant medications. The DLT period consisted of 28 days (Cycle 1). Subjects experiencing DLTs were managed with dose delays and/or discontinuation and continued in the study until disease progression. Decisions to advance to a succeeding dose level occurred after the evaluation of safety and tolerability data for a given dose level.
Accordingly, the eligible subjects were treated in 4-week cycles of once daily self-administration of the compound of Formula I. The administration was after an overnight fast, or after maintaining approximately 2 hours of fasting before and after the dosing in all cycles.
For the cohorts, where the 3±3 design applies, 3 subjects were enrolled initially. If 2 of these subjects experienced a Grade 2 or more toxicity (that was not clearly and incontrovertibly related to the underlying disease or concomitant medications), subsequent cohorts were escalated according to smaller increments. Further, if there were no DLTs in the first 3 subjects, dose escalation to the next higher dose level was allowed to proceed. If 1 of the 3 subjects experienced a DLT, that dose level was expanded to 6 subjects (3 additional subjects were enrolled). If 2 subjects at a given dose level experienced a DLT, the MTD was considered to have been exceeded. The next lower dose level was expanded to 6 subjects, or if 6 subjects had already been enrolled and no more than 1 of the 6 subjects experienced a DLT, then this lower dose level was considered the MTD. Additional subjects were enrolled in dose escalation cohorts for further assessment of safety and efficacy of the compound of Formula 1 at doses that were tolerated (i.e., doses that have <2 DLTs in 6 enrolled subjects or <1 DLT in 3 enrolled subjects). Thus 204 mg was arrived at as MTD. A subject experiencing a DLT was allowed to continue therapy with a reduced dose. Subjects who experienced a DLT and recovered were treated at the next lower dose level until disease progression or other events requiring further dose reduction existed. For cohorts at Dose Level 2 or higher, a further dose reduction (i.e., up to 2 levels lower than their originally assigned dose) was implemented in the case of a further DLT or other non-DLT events requiring a dose reduction, if and when the event leading to dose reduction returned to Grade 1 or lower in severity. The reduced dose was re-escalated to the original or higher dose (i.e., the dose for which safety had been established in the dose escalation cohort) considering subject safety and response to the compound of Formula I. The subject was discontinued from treatment using the compound of Formula I, if dose reduction below 48 mg was required.
The study was conducted over a period of 60 months (5 years) which was divided in 28-days cycle. In the first two cycles, the dose administration was started on day 1 and the subject's assessments were performed on day 1, day 2, day 3, day 8, day 15 and day 22. From Cycle 3 onwards, the assessments were performed every 3 months (i.e., on day 28 of Cycle 3, followed by day 28 of Cycle 6 which was further followed by day 28 of Cycle 9). […]

Cc1ccc(C(=O)NNC(=O)c2c(C)cccc2Cl)cc1C#Cc1cnc2ccccc2c1 [compound of Formula I, N′-(2-chloro-6-methylbenzoyl)-4-methyl-3-[2-(3-quinolyl)ethynyl]-benzohydrazide]
Best Cytogenetic Response: Complete Response (24 mg (N = 1) ESC): 1(100) | Best Cytogenetic Response: Major Cytogenetic Response (24 mg (N = 1) ESC): 1(100) | Best Cytogenetic Response: Minimal Response (24 mg (N = 1) ESC): 0 | Best Cytogenetic Response: Minor Response (24 mg (N = 1) ESC): 0 | Best Cytogenetic Response: No Response (24 mg (N = 1) ESC): 0 | Best Cytogenetic Response: Partial Response (24 mg (N = 1) ESC): 0 | Best Hematologic Response: Complete Response (24 mg (N = 1) ESC): 1(100) | Best Hematologic Response: Major Hematologic Response (24 mg (N = 1) ESC): 1(100) | Best Hematologic Response: No Evidence of Leukemia (24 mg (N = 1) ESC): 0 | Best Hematologic Response: No Response (24 mg (N = 1) ESC): 0 | Best Molecular Response: Complete Response (24 mg (N = 1) ESC): 0 | Best Molecular Response: Major Response (24 mg (N = 1) ESC): 1(100) | Best Molecular Response: No Response (24 mg (N = 1) ESC): 0 | Best Cytogenetic Response: Complete Response (48 mg (N = 3) ESC): 2(66.7) | Best Cytogenetic Response: Major Cytogenetic Response (48 mg (N = 3) ESC): 2(66.7) | Best Cytogenetic Response: Minimal Response (48 mg (N = 3) ESC): 0 | Best Cytogenetic Response: Minor Response (48 mg (N = 3) ESC): 0 | Best Cytogenetic Response: No Response (48 mg (N = 3) ESC): 1(33.3) | Best Cytogenetic Response: Partial Response (48 mg (N = 3) ESC): 0 | Best Hematologic Response: Complete Response (48 mg (N = 3) ESC): 3(100) | Best Hematologic Response: Major Hematologic Response (48 mg (N = 3) ESC): 3(100) | Best Hematologic Response: No Evidence of Leukemia (48 mg (N = 3) ESC): 0 | Best Hematologic Response: No Response (48 mg (N = 3) ESC): 0 | Best Molecular Response: Complete Response (48 mg (N = 3) ESC): 1(33.3) | Best Molecular Response: Major Response (48 mg (N = 3) ESC): 1(33.3) | Best Molecular Response: No Response (48 mg (N = 3) ESC): 2(66.7) | Best Cytogenetic Response: Complete Response (90 mg (N = 1) ESC): 1(100) | Best Cytogenetic Response: Major Cytogenetic Response (90 mg (N = 1) ESC): 1(100) | Best Cytogenetic Response: Minimal Response (90 mg (N = 1) ESC): 0 | Best Cytogenetic Response: Minor Response (90 mg (N = 1) ESC): 0 | Best Cytogenetic Response: No Response (90 mg (N = 1) ESC): 0 | Best Cytogenetic Response: Partial Response (90 mg (N = 1) ESC): 0 | Best Hematologic Response: Complete Response (90 mg (N = 1) ESC): 1(100) | Best Hematologic Response: Major Hematologic Response (90 mg (N = 1) ESC): 1(100) | Best Hematologic Response: No Evidence of Leukemia (90 mg (N = 1) ESC): 0 | Best Hematologic Response: No Response (90 mg (N = 1) ESC): 0 | Best Molecular Response: Complete Response (90 mg (N = 1) ESC): 1(100) | Best Molecular Response: Major Response (90 mg (N = 1) ESC): 1(100) | Best Molecular Response: No Response (90 mg (N = 1) ESC): 0 | Best Cytogenetic Response: Complete Response (126 mg (N = 3) ESC): 0 | Best Cytogenetic Response: Major Cytogenetic Response (126 mg (N = 3) ESC): 0 | Best Cytogenetic Response: Minimal Response (126 mg (N = 3) ESC): 0 | Best Cytogenetic Response: Minor Response (126 mg (N = 3) ESC): 1(33.3) | Best Cytogenetic Response: No Response (126 mg (N = 3) ESC): 1(33.3) | Best Cytogenetic Response: Partial Response (126 mg (N = 3) ESC): 0 | Best Hematologic Response: Complete Response (126 mg (N = 3) ESC): 0 | Best Hematologic Response: Major Hematologic Response (126 mg (N = 3) ESC): 0 | Best Hematologic Response: No Evidence of Leukemia (126 mg (N = 3) ESC): 0 | Best Hematologic Response: No Response (126 mg (N = 3) ESC): 1(33.3) | Best Molecular Response: Complete Response (126 mg (N = 3) ESC): 0 | Best Molecular Response: Major Response (126 mg (N = 3) ESC): 0 | Best Molecular Response: No Response (126 mg (N = 3) ESC): 2(66.7) | maintained CCyR and MMR (2 Ph+ ALL pts): 1 pt | CCyR with MMR (3 AP CML patients): 1 patient | PCyR (3 AP CML patients): 2 patients | complete hematological response (CHR) (4 BP CML patients): 2 patients | disease progression as best response (4 BP CML patients): 2 patients | Best Cytogenetic Response: Complete Response (66 ang (N = 3) ESC): 2(66.7) | Best Cytogenetic Response: Minor Response (66 ang (N = 3) ESC): 0 | Best Cytogenetic Response: No Response (66 ang (N = 3) ESC): 0 | Best Hematologic Response: Complete Response (66 ang (N = 3) ESC): 0 | Best Hematologic Response: Major Hematologic Response (66 ang (N = 3) ESC): 2(66.7) | Best Hematologic Response: No Response (66 ang (N = 3) ESC): 1(33.3) | Best Molecular Response: Major Response (66 ang (N = 3) ESC): 1(33.3) | Best Molecular Response: No Response (66 ang (N = 3) ESC): 2(66.7) | Best Cytogenetic Response: Major Cytogenetic Response ((N = 3) ESC): 3(100) | Best Cytogenetic Response: Minimal Response ((N = 3) ESC): 0 | Best Cytogenetic Response: Partial Response ((N = 3) ESC): 1(33.3) | Best Hematologic Response: No Evidence of Leukemia ((N = 3) ESC): 2(66.7) | Best Molecular Response: Complete Response ((N = 3) ESC): 1(33.3) | Best Cytogenetic Response: Complete Response (Total ESC): 6(54.5) | Best Cytogenetic Response: Major Cytogenetic Response (Total ESC): 7(63.6) | Best Cytogenetic Response: Minimal Response (Total ESC): 0 | Best Cytogenetic Response: Minor Response (Total ESC): 1(9.1) | Best Cytogenetic Response: No Response (Total ESC): 2(18.2) | Best Cytogenetic Response: Partial Response (Total ESC): 1(9.1) | Best Hematologic Response: Complete Response (Total ESC): 5(45.5) | Best Hematologic Response: Major Hematologic Response (Total ESC): 7(63.6) | Best Hematologic Response: No Evidence of Leukemia (Total ESC): 2(18.2) | Best Hematologic Response: No Response (Total ESC): 2(18.2) | Best Molecular Response: Complete Response (Total ESC): 3(27.3) | Best Molecular Response: Major Response (Total ESC): 4(36.4) | Best Molecular Response: No Response (Total ESC): 6(54.5)
